This note sets out measurements from ChEMBL document CHEMBL1122771, “Effects of volume and surface property in hydrolysis by acetylcholinesterase. The trimethyl site” (J Med Chem, 1984).

A short description of data set [1]: Compound was tested for hydrolysis by acetylcholinesterase and the kinetic constant (kcat) which is a first-order rate constant was determined.
Data set [2] has as its system acetylcholinesterase. The data set can be described thus: in vitro.
For data set [3], the system named is acetylcholinesterase. Kind of data set: Compound was tested for hydrolysis by acetylcholinesterase and the kinetic constant, (Km) an apparent dissociation constant, and related to the enzyme's affinity for the substrate was reported. The format is ADME.

In data set [1], `CCOC(C)=O` [ETHYL ACETATE] registered a k cat of 2900 s⁻¹.

With `CC(=O)OCC[S+](C)[O-]` (stereo not given), the Km in data set [2] (acetylcholinesterase) is 16 mM. The k cat in data set [1] is 3800 s⁻¹.

As for `CC(=O)OCCCl`, in data set [2] (acetylcholinesterase), the Km was 14 mM. For the same compound, the k cat in data set [1] came out at 3400 s⁻¹.

Take `CC(=O)OCCC(C)(C)C`: the Michaelis constant (Km) in data set [3] stood at 5.3 mM. The compound also returned a k cat in data set [1] of 66 s⁻¹.

As to `CC(=O)OCC[N+](C)(C)[O-]`, the Km in data set [2] (acetylcholinesterase) came out at 18 mM. For the same compound, in data set [1], the k cat is 4500 s⁻¹.

`CC(=O)OCC[Si](C)(C)C`: in data set [2] (acetylcholinesterase), the Km came to 3.5 mM. The k cat in data set [1] was found to be 5700 s⁻¹.

For the compound `CSCCOC(C)=O`, the Michaelis constant (Km) in data set [2] (acetylcholinesterase) came to 15 mM. This compound also yielded a k cat in data set [1] of 3500 s⁻¹.

As to `CC(=O)OCC[S+](C)C.[Br-]`, the Km in data set [2] (acetylcholinesterase) was 0.33 mM. In data set [1], the k cat is 7700 s⁻¹.

As for `CC(=O)OCCS(C)(=O)=O`, in data set [3], the Michaelis-Menten constant (Km) was determined as 6.2 mM. The compound further displayed a k cat in data set [1] of 11 s⁻¹.

On to `CCCCOC(C)=O` [ACETIC ACID BUTYL ESTER], for which the Michaelis constant (Km) in data set [2] was found to be 13 mM. This compound displayed a k cat in data set [1] of 36 s⁻¹.

As to `CC(=O)OCCBr`, in data set [2] (acetylcholinesterase), the Michaelis-Menten constant (Km) was found to be 7.5 mM. In addition, in data set [1], the k cat worked out at 4500 s⁻¹.

For the compound `CC(=O)OCCC(C)C`, in data set [2] (acetylcholinesterase), the Michaelis constant (Km) stood at 3.6 mM. The k cat in data set [1] came out at 3400 s⁻¹.

For the compound `CC(=O)OCC[N+](C)(C)C` [ACETYLCHOLINE], the Km in data set [3] is 0.33 mM. The k cat in data set [1] was 160 s⁻¹.
